Measurements as given in US20130196000A1, “COMBINATION THERAPY INCLUDING ISOPHO[…], ANALOGS, OR SALTS THEREOF” (ZIOPHARM ONCOLOGY, INC., priority 2012, published 2013).

Assay: Multicenter phase Ib open-label dose-escalation study of IPM-tris plus carboplatin/etoposide (PaCE): safety, DLT and MTD
Format: in vivo, human
Procedure: A multicenter phase I, open-label, dose-escalation study assessing the safety and efficacy of IPM-tris in combination with carboplatin (C) and etoposide (E) (PaCE regimen) in SCLC and in other cancers in which C+E is considered appropriate was conducted. Tumor responses were assessed by RECIST 1.1 and relevant tumor markers.
To be eligible, each subject met each of the following criteria: (i) age >18 years; (ii) subject with documentation of a malignancy scheduled to receive etoposide and carboplatin therapy (including, but not limited to testicular cancer, thymoma, ovarian cancer, osteosarcoma, non-small cell lung cancer, and small cell lung cancer); (iii) ECOG Performance Status of 0 or 1; (iv) adequate bone marrow, liver, and renal function, as assessed by the following laboratory requirements conducted within 14 days prior to dosing; and (v) subjects for whom there is no curative standard therapy.
IPM tris(hydroxymethyl)methylammonium salt (IPM-tris) was given by intravenous (IV) infusion over approximately 30 minutes on days 1, 2, and 3 of each 21 day cycle. Each IPM-tris infusion to a subject was completed within 1 hour (and not more than 90 minutes) of dose preparation in the IV bag. Etoposide was given by IV infusion over approximately 60 minutes on days 1, 2, and 3 of each 21 day cycle. Carboplatin was given by IV infusion over approximately 30 minutes on day 1 of each 21 day cycle.
Each vial of IPM-tris was reconstituted with 14.6% sodium chloride for Injection, to a final concentration of 50.0 mg per mL. If the 14.6% sodium chloride diluent was not available, sites used 5.0%, 5.7%, 8.5%, or 0.9% sodium chloride for injection as the reconstitution diluent according to the same reconstitution instructions. Other standard sodium chloride solutions commercially available in other countries can be used to reconstituted IPM-tris. The IV infusion of IPM-tris was completed within 2.5 hours of reconstitution in the vial.
The doses of IPM-tris, etoposide, and carboplatin for each subject were calculated by the pharmacist based on the dose level and the subject's body surface area (BSA) on the first day of each cycle. BSA was calculated using their Institutional guidelines for calculating BSA or, the calculation for BSA by the Mosteller formula was used (note: SQRT=square root): […]
The maximum tolerable dose (MTD) of IPM-tris when administered in combination with etoposide and carboplatin at fixed doses (90 mg/m^2 and AUC 4, respectively) was determined An additional dose cohort was also evaluated using an escalated dose level of etoposide (100 mg/m^2) in combination with the IPM-tris MTD and carboplatin (AUC 4). Once the recommended doses were determined, this combination regimen was further studied in subjects with small cell lung cancer.

NC(CO)(CO)CO.O=P(O)(NCCCl)NCCCl [IPM-tris, IPM tris(hydroxymethyl)methylammonium salt]
patients with dose limiting toxicity (neutropenic fever) (at 150 mg/m^2 of IPM-tris): one
maximum tolerated dose of IPM-tris (in combination with etoposide 90 mg/m^2 and carboplatin AUC 4 (Cohort 2), IV days 1, 2, 3 of 21 day cycle): **Based on dose escalation cohorts completed prior to Amendment 6, the maximum tolerated dose of IPM-tris was determined to be 130 mg/m^2 when administered in combination with etoposide 90 mg/m^2 and carboplatin AUC 4 (Cohort 2).
maximum tolerated dose of IPM-tris (in combination with etoposide 100 mg/m^2 and carboplatin AUC 4): 130 mg/m^2
IPM-tris dosage found to result in DLT (in combination with etoposide and carboplatin): 150 mg/m^2/day
